Structures can show the parent of a compound that is named as a salt.
Assays:
[1] = test system: NMA neurotoxicity in chick embryo retina; assay: NMDA/KA Antagonist Assay, chick embryo retina, NMA (200 μM) neurotoxicity; format: cell-based; conditions: 15-day old chick embryo retina, 30 min at 37° C., n>6
Procedure: (§1) Two agonists were employed in the present test, each at a concentration established previously to be the lowest concentration required to consistently cause a fully-developed retinal lesion: KA (25 μM) and NMA (200 μM). […] Internal controls in each experiment consisted of at least six specimens being incubated with agonist alone. […] The method of tissue preparation was as follows: 15-day old chick embryos were decapitated and their eyes removed and cut into quadrants after excising the cornea and removing the lens, vitreous and iris. The retinal quadrants were then gently separated from the pigment epithelium and incubated for 30 min. at 37° C. in BSS to which an agonist or agonist plus antagonist was added. The BSS contained 140 mM Na^+, 5.0 mM K^+, 0.5 mM Ca^++, 4 5mM Mg^++, 150 mM Cl^-, 5.6 mM glucose and bicarbonate/phosphate buffer (pH 7.3). After incubation for 30 min., the retinal quadrants were fixed by immersion in phosphatebuffered solution containing 1.5% glutaraldehyde and 1% paraformaldehyde, then additionally fixed in 1% osmium tetroxide, dehydrated in graded ethanols, cleared in toluene and embedded in araldite. Sections were cut 1 μM thick on a Sorval ultratome and stained with Methylene blue/Azure 11 for histopathological evaluation by light microscopy.

[2] = test system: KA neurotoxicity in chick embryo retina; assay: NMDA/KA Antagonist Assay, chick embryo retina, KA (25 μM) neurotoxicity; format: cell-based; conditions: 15-day old chick embryo retina, 30 min at 37° C.
Procedure: as §1

[3] = test system: [^3 H]PCP binding sites, rat cerebral cortical membranes; conditions: Goldman et al, FEBS Lett. 1985; cited from earlier work
[4] = test system: N-Methylaspartate excitation of spinal neurones; conditions: Berry et al, Eur. J. Pharm. 1983; binding and behavioral data; cited from earlier work
chick embryo retina [5] = assay: Acute excitotoxic lesion of chick embryo retina by agonist alone; conditions: 1 mM Glu, 30 min in BSS
Procedure: as §1

[6] = test system: N-methyl-D-aspartate receptor; conditions: Wong et al, PNAS 1986; cited from earlier work
chick embryo retina [7] = conditions: chicken, 30 min
Procedure: as §1

NMA neurotoxicity = conditions: Olney et al, Neuroscience Letters 1986 for PCP and ketamine; competitive NMA antagonist statement without reference; cited from earlier work
[8] = test system: NMDA receptor (N-Methyl-Aspartate excitation of central mammalian neurones); conditions: Anis et al, Br. J. Pharmacol. 1983; cited from earlier work

10-[2-(diethylamino)ethyl]phenothiazine [ethopropazine]
concentration providing total protection against toxicity of NMA [1]: 25.0 µM | blocking of KA toxicity [2]: not observed

CC1CCCN(C2(c3ccccc3)CCCCC2)C1 (single isomer, unassigned; (+)) [(+)-PCMP, (+)-1-(1-phenylcyclohexyl)-3-methylpiperidine]
inhibition of the specific binding of [^3 H]PCP [3]: potent inhibitor | stereoselective effect over isomer counterpart in reducing the excitatory action of NMDA [4]: stereoselective effects

N[C@@H](CCC(=O)O)C(=O)O [Glu, Glutamate]
retinal lesion (chick embryo retina [5]): full lesion

C[C@]12N[C@H](Cc3ccccc31)c1ccccc12 [MK-801, (+)-5-methyl-10,11-dihydro-5H-dibenzo[a,d]cyclohepten-5,10-imine maleate)]
antagonism of the N-methyl-D-aspartate receptor site [6]: potent, selective non-competitive antagonist

CN[C@H](CC(=O)O)C(=O)O [NMA, N-methyl-D-aspartate]
lowest concentration required to consistently cause a fully-developed retinal lesion (chick embryo retina [7]): 200 µM

c1ccc(C2(N3CCCCC3)CCCCC2)cc1 [PCP]
blocking of NMA neurotoxicity (NMA neurotoxicity): Blocking of NMA neurotoxicity | reduction of excitatory effects of NMDA as compared to KA and QUIS [8]: reduce selectively the excitatory effects of NMDA as compared to KA and QUIS

CC1CCC(c2ccccc2)(N2CCCCC2)CC1 (stereo not drawn) [cis-N-(1-phenyl-4-methylcyclohexyl)piperidine]
stereoselective effect over isomer counterpart in reducing the excitatory action of NMDA [4]: stereoselective effects

CNC1(c2ccccc2Cl)CCCCC1=O (stereo not drawn) [ketamine]
blocking of NMA neurotoxicity (NMA neurotoxicity): Blocking of NMA neurotoxicity | reduction of excitatory effects of NMDA as compared to KA and QUIS [8]: reduce selectively the excitatory effects of NMDA as compared to KA and QUIS
